# Measurements published in patent US6841556B2, “Pyrazoloisoquinoline derivatives for inhibiting NFκB-inducing kinase” (Aventis Pharma Deutschland GmbH, priority 2002, dated 2005).
# Test system: human peripheral blood lymphocytes
# Assay: Cytotoxicity by LDH release, IL1β-stimulated human peripheral blood lymphocytes
# Type: cell-based
# Description: (§1) The pyrazoloisoquinoline derivatives according to the invention were tested for inhibitory activity against NIK in various in vitro assay systems. In this connection, human peripheral blood lymphocytes were preincubated for 1 h with different concentrations of the compounds and then stimulated for 24 h with LPS or IL1β. After that, a commercially obtainable ELISA test kit was used to measure the release of TNFα in the culture supernatant, and the IC50 for the given compound was determined. The cytotoxicity was measured by way of LDH release using a commercially obtainable test kit and the LD50 for the given compound was determined.
row,SMILES,Cytotoxicity LD50
1,"Cc1n[nH]c2c1nc(-c1cccc(O)c1)c1ccccc12 [Example 3, 3-(3-Methyl-1H-pyrazolo[4,3-c]isoquinolin-5-yl)phenol]",>100 µM
2,"c1ccc(-c2nc3c(-c4ccccc4)n[nH]c3c3ccccc23)cc1 [Example 1, 3,5-Diphenyl-1H-pyrazolo[4,3-c]isoquinoline]",>100 µM
3,"COc1cccc(-c2nc3c(C)n[nH]c3c3ccccc23)c1 [Example 2, 5-(3-Methoxyphenyl)-3-methyl-1H-pyrazolo[4,3-c]isoquinoline]",>100 µM

# Test system: human peripheral blood lymphocytes
# Assay: Cytotoxicity by LDH release, LPS-stimulated human peripheral blood lymphocytes
# Type: cell-based
# Description: as §1
row,SMILES,Cytotoxicity LD50
1,"Cc1n[nH]c2c1nc(-c1cccc(O)c1)c1ccccc12 [Example 3, 3-(3-Methyl-1H-pyrazolo[4,3-c]isoquinolin-5-yl)phenol]",>100 µM
2,"c1ccc(-c2nc3c(-c4ccccc4)n[nH]c3c3ccccc23)cc1 [Example 1, 3,5-Diphenyl-1H-pyrazolo[4,3-c]isoquinoline]",>100 µM
3,"COc1cccc(-c2nc3c(C)n[nH]c3c3ccccc23)c1 [Example 2, 5-(3-Methoxyphenyl)-3-methyl-1H-pyrazolo[4,3-c]isoquinoline]",>100 µM
